Test results taken from patent US20180207294A1, “NON-ALCOHOLIC FATTY LIVER REGULATING FACTOR 14-3-3 PROTEIN” (Korea University Research and Business Foundation, priority 2015, published 2018).

Tests used:
[1] = tested on: primary mouse hepatocytes; assay: Triglyceride colorimetric assay, primary mouse hepatocytes; type: cell-based; details: primary mouse hepatocytes; 14-3-3 overexpression; 200 μM oleic acid 72 hours; FIG. 10A
Experimental: A triglyceride (neutral fat) is a type of fatty acid and is used as an index of a fat content. A biochemical lipid test was carried out by measuring an amount of triglycerides. HepG2 cells and primary mouse hepatocytes were separately seeded in a 6-well plate at a density of 4×10^5 cells per each well, and then transfected with GFP-14-3-3β DNA (1 μg) or GFP-14-3-3γ DNA (1 μg) and si-14-3-3β (10 μM, Santa Cruz) or si-14-3-3γ (10 μM, Santa Cruz) using an E-fection plus reagent (Lugen). A ratio of DNA to the E-fection plus reagent was 1:2, and this method was performed according to a manufacturer's manual. After transfection, the cells were treated with 200 μM of oleic acid (OA) for 72 hours, and the amount of triglycerides was measured using a triglyceride colorimetric assay kit (Cayman Chemical). The corresponding cells were washed with ice-cold PBS and then scraped using a standard diluent assay reagent, the scrapping process was repeated using a sonicator 20 times to lyse the cells, and the lysed cells were reacted with an enzyme buffer solution for 15 minutes, followed by measurement using an ELISA reader (Bio-Rad Laboratories, Inc) at a wavelength of 550 nm.

HepG2 cells = assay: Oil Red-O lipid accumulation, HepG2 cells; type: cell-based; details: 14-3-3 overexpression, 200 μM oleic acid 72 hours, FIG. 9B
Experimental: HepG2 cells and primary mouse hepatocytes were separately seeded in a 6-well plate at a density of 4×10^5 cells per each well, and then transfected with GFP-14-3-3β DNA (1 μg) or GFP-14-3-3γ DNA (1 μg) and si-14-3-3β (10 μM, Santa Cruz) or si-14-3-3γ (10 μM, Santa Cruz) using an E-fection plus reagent (Lugen). A ratio of DNA to the E-fection plus reagent was 1:2, and this method was performed according to a manufacturer's manual. […] The stained cells were bleached with 1 ml of isopropanol and analyzed at a wavelength of 550 nm using a DU530 spectrophotometer (Beckman Instruments, Palo Alto, Calif.).

PPARγ2 deletion mutants [2] = target: T1, PPARγ2 deletion mutants (Homo sapiens, UniProt P37231); assay: GST-pull down assay with PPARγ2 deletion mutants (HEK-293T); type: binding; details: FIG. 3B, 3C
T1 construct: expressed in transfected cells; host or cells: HEK-293T
T1 sequence (P37231 1-310): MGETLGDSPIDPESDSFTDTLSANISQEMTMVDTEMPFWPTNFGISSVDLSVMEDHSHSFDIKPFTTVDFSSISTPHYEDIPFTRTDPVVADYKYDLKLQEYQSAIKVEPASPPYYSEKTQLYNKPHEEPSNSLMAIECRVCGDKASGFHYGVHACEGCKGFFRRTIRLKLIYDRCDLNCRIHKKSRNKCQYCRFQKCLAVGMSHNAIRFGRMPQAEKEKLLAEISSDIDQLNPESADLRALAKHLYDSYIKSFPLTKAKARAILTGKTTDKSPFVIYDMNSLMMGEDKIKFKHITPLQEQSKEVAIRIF
Experimental: (§1) The PPARγ2 protein has been reported to consist of an activation function 1 (AF-1, amino acids 1-138) domain, a DNA-binding domain (DBD, amino acids 139-203), a hinge region (amino acids 204-310), and an activation function 2 (AF-2, amino acids 311-505) domain (see FIG. 3A). Thus, GST-pull down assay was conducted to verify which domain part of PPARγ2 was bound to 14-3-3β and 14-3-3γ.
(§2) HEK-293T cells were seeded in a 100 mm plate at a density of 2×10^6 cells per each well, and then transfected with Flag-PPARγ2 (1-505) DNA (4 μg), Flag-PPARγ2 (1-310) DNA (4 μg), Flag-PPARγ2 (139-505) DNA (4 μg), and mGST-14-3-3β (4 μg) or mGST-14-3-3γ (4 μg) using an E-fection plus reagent (Lugen). For Flag-PPARγ2 (1-310) DNA and Flag-PPARγ2 (139-505) DNA, DNA fragments amplified through polymerase chain reaction (PCR) were cloned into a pCMV-3Tag-1 vector using restriction enzymes Xhol and Apal. A ratio of DNA to the E-fection plus reagent was 1:2, and this method was performed according to a manufacturer's manual. The corresponding cells were washed with ice-cold PBS and lysed using 500 μl/well of a lysis buffer (150 mM NaCl, 1 mM EDTA, 1% Nonidet P-40, 5% glycerol, 25 mM tris-HCl, pH 7.5, protease inhibitor added), and the lysed cells were centrifuged at 10,000×g and 4° C. for 10 minutes to extract proteins. Thereafter, 1,000 μg of the proteins was reacted with 20 μl of glutathione Sepharose 4B beads (GE Healthcare, Buckinghamshire, UK) for 6 hours, and then washing of the beads with 1 ml of ice-cold PBS was repeated 5 times, and the beads were boiled at 100° C. for 10 minutes, followed by 10% SDS-PAGE gel separation and western blotting. A ratio of GST antibodies (Santa Cruz) to Flag antibodies (Santa Cruz) was 1:3000. The detection of each protein was performed using West Pico ECL (Thermo scientific, Rockford, Ill.) and identified in a darkroom.

PPARγ2 deletion mutants [3] = target: T2, PPARγ2 deletion mutants (Homo sapiens, UniProt P37231); assay: as above; type: binding; details: FIG. 3B, 3C; remark: listed apart in the source
T2 construct: expressed in transfected cells; host or cells: HEK-293T
T2 sequence (P37231 139-505): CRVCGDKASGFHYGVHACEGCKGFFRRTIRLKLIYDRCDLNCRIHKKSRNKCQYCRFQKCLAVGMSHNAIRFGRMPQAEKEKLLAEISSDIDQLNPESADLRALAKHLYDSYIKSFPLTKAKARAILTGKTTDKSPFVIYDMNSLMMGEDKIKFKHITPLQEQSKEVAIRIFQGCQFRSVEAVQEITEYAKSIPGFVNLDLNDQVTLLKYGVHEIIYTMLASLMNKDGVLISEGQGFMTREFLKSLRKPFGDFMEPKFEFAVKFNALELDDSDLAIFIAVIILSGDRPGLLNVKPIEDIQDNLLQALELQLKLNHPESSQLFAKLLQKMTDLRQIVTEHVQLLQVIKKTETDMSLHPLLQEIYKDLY
Experimental: as §1, §2

| Substance | triglyceride accumulation [1] | lipid accumulation by oleic acid (Oil Red-O) (HepG2 cells) | binding to PPARγ2 deletion mutant (1-310) (PPARγ2 deletion mutants [2]) | binding to PPARγ2 deletion mutant (139-505) (PPARγ2 deletion mutants [3]) |
| --- | --- | --- | --- | --- |
| 14-3-3β: 14-3-3 isoform protein, overexpressed by DNA transfection; regulating factor that increases transcriptional activity of PPARγ2 | further increased | increased lipid accumulation | bound | bound |
| 14-3-3γ: 14-3-3 isoform protein, overexpressed by DNA transfection; regulating factor that decreases transcriptional activity of PPARγ2 | reduced triglyceride accumulation | reduced lipid accumulation | bound | bound |
